From patent US12285434B2, “Therapeutic, preventive, or improvement agent for inflammatory disease and allergic disease” (The University of Tokyo, priority 2018, dated 2025)

What was measured:
[1] = test system: mouse aortae; assay: Measurement of vascular contraction of aorta (aortic ring specimens)
Protocol: After excision of the thoracic aortae from untreated mice and removal of fat and connective tissue, the aortae were cut into rings to prepare aortic ring specimens. The ring specimens were immersed in a liquid tank filled with a normal nutrient solution (physiological saline solution containing 136.9 mM NaCl, 5.4 mM KCl, 5.5 mM glucose, 23.8 mM NaHCO3, 1.5 mM CaCl2, 1.0 mM MgCl2 and 0.01 mM EDTA), and two stainless hooks were penetrated through the lumens of the ring specimens. One end of each of the stainless hooks was fixed, and the other end thereof was connected to a force-displacement transducer (T7-30-240, manufactured by Orientec Co., Ltd.) connected to a strain amplifier (3134 strain AMPL, manufactured by Yokogawa Test & Measurement Corporation). Then, the following operation (a), (b) or (c) was performed.
(a) Norepinephrine (manufactured by Sigma) was cumulatively added into the liquid tank containing the ring specimens after stabilization of each contraction (every about 30 minutes) so as to attain 0.001 μM, 0.01 μM, 0.1 μM and 1 μM, and this group was designated as a “norepinephrine-administered group” (n=4) (FIG. 3A). 5,6-DiHETE was cumulatively added into the liquid tank containing the ring specimen after stabilization of each contraction (every about 30 minutes) so as to attain 0.001 μM, 0.01 μM, 0.1 μM and 1 μM, and this group was designated as a “5,6-DiHETE-administered group” (n=4) (FIG. 3A).
(b) Norepinephrine was added into the liquid tank containing the ring specimens so as to attain 0.3 μM, and precontraction was induced by administration of norepinephrine (FIG. 3B). Then, after the contraction by the administration of norepinephrine was stabilized, acetylcholine (manufactured by Sigma) was cumulatively added after stabilization of each relaxation reaction (every about 15 minutes) so as to attain 0.03 μM, 0.1 μM, 0.3 μM and 1 μM, and this group was designated as an “acetylcholine-administered group” (FIG. 3B). After the contraction by the administration of norepinephrine was stabilized, 5,6-DiHETE was cumulatively added every about 15 minutes so as to attain 0.001 μM, 0.01 μM, 0.1 μM and 1 μM, and this group was designated as a “5,6-DiHETE-administered group” (n=4) (FIG. 3B).
(c) In order to verify the effect of 5,6-DiHETE on the acetylcholine administration, norepinephrine was added into the liquid tank containing the ring specimens so as to attain 1 μM. After the contraction by the administration of norepinephrine was stabilized, 5,6-DiHETE or a vehicle (solvent alone) was added so as to attain 1 μM. […]
In the above operations (a) to (c), tension (contractile force) generated in the aortic ring specimens was measured isometrically over time using the above force-displacement transducer under a resting tension of 3 mN, and recorded.

[2] = test system: eNOS phosphorylation in HUVECs; assay: Histamine-induced eNOS phosphorylation (Western blot); assay type: cell-based, human; conditions: pretreatment 0.1 μM, 15 minutes; histamine 10 μM, 5 minutes
Protocol: In Examples 4 to 6, human umbilical vein endothelial cells (hereinafter, sometimes referred to as “HUVECs”, manufactured by Lonza) were cultured in EGM-2 (manufactured by Lonza K.K.). These cells (passages 4 to 9) were used for experiments after 4-hour starvation in EBM-2 (manufactured by Lonza K.K.) containing 2% FBS.
To the plates on which the HUVECs were cultured, 5,6-DiHETE was added so as to attain 100 nM, and, 15 minutes after the addition, histamine was added so as to attain 10 μM. Then, in order to measure the protein masses of phosphorylated eNOS and eNOS, 5 minutes after the administration of histamine, the HUVECs were lysed with a modified lysis buffer (50 mM Tris-HCl (pH 7.4), 0.1 mM EDTA, 0.1 mM EGTA, 1% NP-40 substitute, 0.1% SDS, 0.1% deoxycholic acid, 50 mM NaF, 1 mM Na3VO4, and 10 mM β-glycerophosphate). […] Bands were detected and quantified using an Odyssey system (manufactured by LI-COR Biosciences) (FIG. 5B). Specifically, the bands of phosphorylated eNOS and eNOS were detected by scanning (800 nm) with the Odyssey system, and their intensity (band brightness) was quantified. The phosphorylation level of eNOS (ratio of phosphorylated eNOS to eNOS) was quantified and evaluated by a relative value obtained by dividing the band brightness of phosphorylated eNOS by the band brightness of eNOS. […]

[3] = test system: acute lung injury model mice; assay: Hydrochloric acid-induced acute lung injury (pneumonia, pulmonary edema); assay type: in vivo, mouse; conditions: 50 μg/kg intraperitoneally 5 minutes before and 3 hours after HCl
Protocol: Fifty (50) μL of 0.1 N hydrochloric acid was nasally administered to 57BL/6 strain mice (male, 8 to 12 weeks old) to prepare acute lung injury model mice (hereinafter, sometimes referred to as “pneumonia group”). On the other hand, 50 μg/kg 5,6-DiHETE (manufactured by Cayman Chemical) was intraperitoneally administered 5 minutes before and 3 hours after the nasal administration of hydrochloric acid (hereinafter, sometimes referred to as “5,6-DiHETE-administered group”).
The lungs of the pneumonia group and the 5,6-DiHETE-administered group were collected 6 hours after the nasal administration of hydrochloric acid, fixed in 4% paraformaldehyde for 24 hours, embedded in paraffin, and cut into 2 μm-thick sections. Hematoxylin staining and eosin staining of these sections were performed according to a conventional method.
The wet/dry weight ratio was used as an index of pulmonary edema (Rachmilewitz D. et al., Gastroenterology, 97: 326-337(1989)). Specifically, 6 hours after the nasal administration of hydrochloric acid, the lungs were collected and the wet weights were measured. The lungs were then dried at 60° C. for 24 hours, and, thereafter, the dry weight was measured. In addition, the ventilatory capacity of the lungs was evaluated as an index of pneumonia using arterial blood oxygen saturations.

CC/C=C\C/C=C\C/C=C\C/C=C\C[C@@H](O)[C@@H](O)CCCC(=O)O (racemic) [5,6-DiHETE, (±) 5,6-dihydroxy-8Z,11Z,14Z,17Z-eicosatetraenoic acid]
acetylcholine-induced aortic relaxation vs vehicle-administered group ([1]; 1 μM pretreatment, precontraction 1 μM norepinephrine, acetylcholine 0.03-1 μM): significantly attenuated | contraction of aorta ([1]; cumulative addition 0.001, 0.01, 0.1 and 1 μM): no contraction was caused | effect on aorta precontracted by norepinephrine ([1]; precontraction 0.3 μM norepinephrine, cumulative 0.001, 0.01, 0.1 and 1 μM): did not affect the precontraction by norepinephrine | histamine-induced phosphorylation of eNOS (serine 1177) [2]: significantly reduced histamine-induced phosphorylation of eNOS | decrease in arterial blood oxygen saturation [3]: suppressed | epithelial damage and neutrophil tissue infiltration (HE-stained lung) ([3]; 6 hours): suppressed | moisture content of the lung tissue (wet/dry weight ratio) ([3]; 6 hours): significantly reduced except one case | reddishness of lung tissue (appearance) ([3]; 6 hours): improved
